Measurements: patent publication US20210045385A1, “PYRIDAZINONE-SUBSTITUTED KETOXIMES AS HERBICIDES” (FMC Corporation, priority 2018, published 2021)

Assays:
Type in all cases: in vivo
[1] = test system: Italian ryegrass (Lolium mutiflorum); experiment: Test C preemergence, visual plant response rating; conditions: Test C, 0 is no effect, 100 is complete control
In short: (§1)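 Visual injury on a 0 (no effect) to 100 (complete control) scale versus untreated controls, scored approximately 10 d after treatment under greenhouse conditions. Treatments used surfactant-containing non-phytotoxic solvent formulations, sprayed onto loam–sand soil preemergence or onto one- to two-leaf plants 2–10 cm tall postemergence.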

[2] = test system: barnyardgrass (Echinochloa crus-galli); experiment: Test C preemergence, visual plant response rating; conditions: Test C, 0 is no effect, 100 is complete control
In short: as §1

[3] = test system: foxtail, giant (giant foxtail, Setaria faberi); experiment: Test C preemergence, visual plant response rating; conditions: Test C, 0 is no effect, 100 is complete control
In short: as §1

kochia (Bassia scoparia) [4] = experiment: Test C preemergence, visual plant response rating; conditions: Test C, 0 is no effect, 100 is complete control
In short: as §1

[5] = test system: pigweed (Amaranthus retroflexus); experiment: Test C preemergence, visual plant response rating; conditions: Test C, 0 is no effect, 100 is complete control
In short: as §1

[6] = test system: ragweed (common ragweed, Ambrosia artemisiifolia); experiment: Test C preemergence, visual plant response rating; conditions: Test C, 0 is no effect, 100 is complete control
In short: as §1

[7] = test system: Italian ryegrass (Lolium mutiflorum); experiment: Test C postemergence, visual plant response rating
In short: as §1

[8] = test system: barnyardgrass (Echinochloa crus-galli); experiment: Test C postemergence, visual plant response rating
In short: as §1

[9] = test system: blackgrass (Alopecurus myosuroides); experiment: Test C postemergence, visual plant response rating
In short: as §1

corn (Zea mays) = experiment: Test C postemergence, visual plant response rating
In short: as §1

[10] = test system: foxtail, giant (giant foxtail, Setaria faberi); experiment: Test C postemergence, visual plant response rating
In short: as §1

[11] = test system: galium (catchweed bedstraw, Galium aparine); experiment: Test C postemergence, visual plant response rating
In short: as §1

kochia (Bassia scoparia) [12] = experiment: Test C postemergence, visual plant response rating
In short: as §1

[13] = test system: pigweed (Amaranthus retroflexus); experiment: Test C postemergence, visual plant response rating
In short: as §1

[14] = test system: ragweed (common ragweed, Ambrosia artemisiifolia); experiment: Test C postemergence, visual plant response rating
In short: as §1

[15] = test system: wheat (Triticum aestivum); experiment: Test C postemergence, visual plant response rating
In short: as §1

[16] = test system: barnyardgrass (Echinochloa crus-galli); experiment: Test D flooded paddy test, visual plant response rating; conditions: 250 g ai/ha, scale 0 to 100 (0 no effect, 100 complete control), 13 to 15 d
In short: (§2)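 Rating is visual, on a 0 (no effect) to 100 (complete control) scale versus controls, taken 13 to 15 d after treatment in a greenhouse. Treatment went into paddy water kept 3 cm above the soil surface, with plants at the 2-leaf stage.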

[17] = test system: duck salad (Heteranthera limosa); experiment: as above; conditions: 250 g ai/ha, scale 0 to 100 (0 no effect, 100 complete control), 13 to 15 d
In short: as §2

rice (Oryza sativa) = experiment: as above; conditions: 250 g ai/ha, scale 0 to 100 (0 no effect, 100 complete control), 13 to 15 d
In short: as §2

[18] = test system: sedge umbrella (small-flower umbrella sedge, Cyperus difformis); experiment: as above; conditions: 250 g ai/ha, scale 0 to 100 (0 no effect, 100 complete control), 13 to 15 d
In short: as §2

[19] = Test C, postemergence, 125 g ai/ha

SMILES	Ryegrass, Italian plant response rating (0 to 100 scale) ([1]; 31 g ai/ha)	Ryegrass, Italian plant response rating (0 to 100 scale) ([1]; 125 g ai/ha)	Barnyardgrass plant response rating (0 to 100 scale) ([2]; 31 g ai/ha)	Barnyardgrass plant response rating (0 to 100 scale) ([2]; 125 g ai/ha)	Foxtail, Giant plant response rating (0 to 100 scale) ([3]; 31 g ai/ha)	Foxtail, Giant plant response rating (0 to 100 scale) ([3]; 125 g ai/ha)	Kochia plant response rating (0 to 100 scale) (kochia (Bassia scoparia) [4]; 31 g ai/ha)	Kochia plant response rating (0 to 100 scale) (kochia (Bassia scoparia) [4]; 125 g ai/ha)	Pigweed plant response rating (0 to 100 scale) ([5]; 31 g ai/ha)	Pigweed plant response rating (0 to 100 scale) ([5]; 125 g ai/ha)	Ragweed plant response rating (0 to 100 scale) ([6]; 31 g ai/ha)	Ragweed plant response rating (0 to 100 scale) ([6]; 125 g ai/ha)	Ryegrass, Italian plant response rating (0 to 100 scale) ([7]; Postemergence, 31 g ai/ha)	Ryegrass, Italian plant response rating (0 to 100 scale) [7, 19]	Barnyardgrass plant response rating (0 to 100 scale) ([8]; Postemergence, 31 g ai/ha)	Barnyardgrass plant response rating (0 to 100 scale) [8, 19]	Blackgrass plant response rating (0 to 100 scale) ([9]; Postemergence, 31 g ai/ha)	Blackgrass plant response rating (0 to 100 scale) [9, 19]	Corn plant response rating (0 to 100 scale) (corn (Zea mays); Postemergence, 31 g ai/ha)	Corn plant response rating (0 to 100 scale) (corn (Zea mays); [19])	other results
CO/N=C(\c1cc(F)cc(C)c1F)c1c(O)c(C)nn(C)c1=O [Compound 193]	30	80	30	60	30	80	10	70	50	90	30	60	40	70	20	50	20	50	0	10	Foxtail, Giant plant response rating (0 to 100 scale) ([10]; Postemergence, 31 g ai/ha): 40; Foxtail, Giant plant response rating (0 to 100 scale) [10, 19]: 50; Galium plant response rating (0 to 100 scale) ([11]; Postemergence, 31 g ai/ha): 80; Galium plant response rating (0 to 100 scale) [11, 19]: 90; Kochia plant response rating (0 to 100 scale) (kochia (Bassia scoparia) [12]; Postemergence, 31 g ai/ha): 60; Kochia plant response rating (0 to 100 scale) (kochia (Bassia scoparia) [12]; [19]): 70; Pigweed plant response rating (0 to 100 scale) ([13]; Postemergence, 31 g ai/ha): 40; Pigweed plant response rating (0 to 100 scale) [13, 19]: 80; Ragweed plant response rating (0 to 100 scale) ([14]; Postemergence, 31 g ai/ha): 70; Ragweed plant response rating (0 to 100 scale) [14, 19]: 70; Wheat plant response rating (0 to 100 scale) ([15]; Postemergence, 31 g ai/ha): 0; Wheat plant response rating (0 to 100 scale) [15, 19]: 0; Plant response rating, Barnyardgrass (Flood) [16]: 0; Plant response rating, Ducksalad (Flood) [17]: 0; Plant response rating, Rice (Flood) (rice (Oryza sativa)): 0; Plant response rating, Sedge, Umbrella (Flood) [18]: 0
CC(C)O/N=C(/c1c(O)cnn(C)c1=O)c1ccc(F)c2ccccc12 [Compound 302]	0	0	0	0	0	10	0	0	10	40	0	20	0	30	0	0	0	0	0	0	Foxtail, Giant plant response rating (0 to 100 scale) ([10]; Postemergence, 31 g ai/ha): 10; Foxtail, Giant plant response rating (0 to 100 scale) [10, 19]: 30; Galium plant response rating (0 to 100 scale) ([11]; Postemergence, 31 g ai/ha): 20; Galium plant response rating (0 to 100 scale) [11, 19]: 60; Kochia plant response rating (0 to 100 scale) (kochia (Bassia scoparia) [12]; Postemergence, 31 g ai/ha): 0; Kochia plant response rating (0 to 100 scale) (kochia (Bassia scoparia) [12]; [19]): 20; Pigweed plant response rating (0 to 100 scale) ([13]; Postemergence, 31 g ai/ha): 30; Pigweed plant response rating (0 to 100 scale) [13, 19]: 60; Ragweed plant response rating (0 to 100 scale) ([14]; Postemergence, 31 g ai/ha): 0; Ragweed plant response rating (0 to 100 scale) [14, 19]: 20; Wheat plant response rating (0 to 100 scale) ([15]; Postemergence, 31 g ai/ha): 0; Wheat plant response rating (0 to 100 scale) [15, 19]: 0; Plant response rating, Barnyardgrass (Flood) [16]: 0; Plant response rating, Ducksalad (Flood) [17]: 0; Plant response rating, Rice (Flood) (rice (Oryza sativa)): 0; Plant response rating, Sedge, Umbrella (Flood) [18]: 0
Cc1nn(C)c(=O)c(/C(=N\OC(C)C)c2cccc3cc(Cl)ccc23)c1O [Compound 241]	0	0	10	60	80	90	0	0	90	100	40	10	0	0	30	60	20	40	10	0	Foxtail, Giant plant response rating (0 to 100 scale) ([10]; Postemergence, 31 g ai/ha): 70; Foxtail, Giant plant response rating (0 to 100 scale) [10, 19]: 80; Galium plant response rating (0 to 100 scale) ([11]; Postemergence, 31 g ai/ha): 90; Galium plant response rating (0 to 100 scale) [11, 19]: 100; Kochia plant response rating (0 to 100 scale) (kochia (Bassia scoparia) [12]; Postemergence, 31 g ai/ha): 0; Kochia plant response rating (0 to 100 scale) (kochia (Bassia scoparia) [12]; [19]): 20; Pigweed plant response rating (0 to 100 scale) ([13]; Postemergence, 31 g ai/ha): 80; Pigweed plant response rating (0 to 100 scale) [13, 19]: 90; Ragweed plant response rating (0 to 100 scale) ([14]; Postemergence, 31 g ai/ha): 80; Ragweed plant response rating (0 to 100 scale) [14, 19]: 100; Wheat plant response rating (0 to 100 scale) ([15]; Postemergence, 31 g ai/ha): 0; Wheat plant response rating (0 to 100 scale) [15, 19]: 0; Plant response rating, Barnyardgrass (Flood) [16]: 90; Plant response rating, Ducksalad (Flood) [17]: 85; Plant response rating, Rice (Flood) (rice (Oryza sativa)): 85; Plant response rating, Sedge, Umbrella (Flood) [18]: 95
